Measurements published in patent US8466193B2, “Selective inhibitors of histone deacetylase” (Pharmacyclics, Inc., priority 2008, dated 2013).

What was measured:
[1] = biological target: HDAC1 (Homo sapiens, UniProt Q13547); test: Histone deacetylase activity, continuous trypsin-coupled assay; format: biochemical; conditions: 15 minutes preincubation; substrate acetyl-Gly-Ala-(N-acetyl-Lys)-AMC
Description: (§1) HDAC activity was measured using a continuous trypsin-coupled assay that has been described in detail previously (US 20070281934; Schultz et. al., Biochemistry, 43 (34), 11083-11091, 2004; Kim et al. (2006), Methods Mol. Biol., 325:273-283). For inhibitor characterization, measurements were performed in a reaction volume of 100 μL using 96-well assay plates in a fluorescence plate reader. For each isozyme, the HDAC protein in reaction buffer (50 mM HEPES, 100 mM KCl, 0.001% Tween-20, 5% DMSO, pH 7.4, supplemented with bovine serum albumin at concentrations of 0-0.05%, was mixed with inhibitor at various concentrations and allowed to incubate for 15 minutes. Trypsin was added to a final concentration of 50 nM, and acetyl-Gly-Ala-(N-acetyl-Lys)-AMC was added to a final concentration of 25-100 μM to initiate the reaction. After a 30 minute lag time, the fluorescence was measured over a 30 minute time frame using an excitation wavelength of 355 nm and a detection wavelength of 460 nm. The increase in fluorescence with time was used as the measure of the reaction rate. Inhibition constants Ki(app) were obtained using the program BatchKi (Biokin, Pullman, Wash.).

[2] = biological target: T1, HDAC6 (Homo sapiens, UniProt Q9UBN7); test: as above; format: biochemical; conditions: 15 minutes preincubation; substrate acetyl-Gly-Ala-(N-acetyl-Lys)-AMC
T1 sequence (Q9UBN7 1-1215): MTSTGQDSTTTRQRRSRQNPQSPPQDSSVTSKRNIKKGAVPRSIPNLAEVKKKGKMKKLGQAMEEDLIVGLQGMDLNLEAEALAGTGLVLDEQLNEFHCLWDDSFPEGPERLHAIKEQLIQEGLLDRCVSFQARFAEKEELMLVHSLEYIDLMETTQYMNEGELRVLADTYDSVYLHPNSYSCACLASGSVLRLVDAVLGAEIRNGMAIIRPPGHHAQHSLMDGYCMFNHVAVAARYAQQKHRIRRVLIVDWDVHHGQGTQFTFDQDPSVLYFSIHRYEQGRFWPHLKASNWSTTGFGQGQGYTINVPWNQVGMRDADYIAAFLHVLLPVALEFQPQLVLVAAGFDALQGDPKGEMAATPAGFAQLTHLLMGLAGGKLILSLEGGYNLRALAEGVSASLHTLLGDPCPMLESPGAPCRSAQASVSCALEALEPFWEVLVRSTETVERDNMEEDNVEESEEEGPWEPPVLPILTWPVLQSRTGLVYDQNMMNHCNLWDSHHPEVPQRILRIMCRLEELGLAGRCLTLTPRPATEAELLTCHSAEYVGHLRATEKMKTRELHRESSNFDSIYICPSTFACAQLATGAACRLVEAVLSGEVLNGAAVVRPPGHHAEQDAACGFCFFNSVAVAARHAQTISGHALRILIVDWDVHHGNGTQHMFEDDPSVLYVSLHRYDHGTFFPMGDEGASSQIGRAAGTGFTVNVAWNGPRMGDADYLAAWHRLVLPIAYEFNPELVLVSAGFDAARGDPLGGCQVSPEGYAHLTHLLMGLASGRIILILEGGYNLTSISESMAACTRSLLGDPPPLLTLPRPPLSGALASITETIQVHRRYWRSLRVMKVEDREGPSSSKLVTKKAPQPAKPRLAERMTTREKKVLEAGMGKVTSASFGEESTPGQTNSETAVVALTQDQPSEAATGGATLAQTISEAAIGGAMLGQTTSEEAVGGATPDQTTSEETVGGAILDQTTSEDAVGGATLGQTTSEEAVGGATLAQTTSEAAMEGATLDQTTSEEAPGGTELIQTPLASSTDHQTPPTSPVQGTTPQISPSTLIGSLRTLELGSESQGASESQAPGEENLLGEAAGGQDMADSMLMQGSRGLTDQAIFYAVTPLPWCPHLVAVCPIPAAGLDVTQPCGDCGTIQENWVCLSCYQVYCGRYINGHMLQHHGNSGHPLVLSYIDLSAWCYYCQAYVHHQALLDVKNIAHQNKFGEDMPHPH
Description: as §1

[3] = Pharmacokinetic analysis in male rats, oral gavage; format: in vivo; conditions: CD IGS (Sprague-Dawley derived), rat, plasma, orally at 3 mg/kg, compounds administered in combination
Description: This study, performed in male rats with test compounds (Compound 303 and Compound 316), was designed to provide preliminary information on their pharmacokinetics. The test compounds were administered in combination by oral gavage.
The specifications for rats used on this study are as follows: • Strain: CD® IGS rats (Sprague-Dawley derived) • Source: Charles River Laboratories • Surgical modification for oral dosing: One portal vein cannula and one jugular vein cannula • Body weight range at dosing 350 to 375 g
The rats were acclimatized to laboratory conditions for at least 24 hours before dosing. The evening before dosing, food was withheld from the rats and was returned immediately following the 3-hour blood collection time point. Water was provided ad libitum. The rats were housed individually in translucent polycarbonate cages.
Test compounds were prepared as 3.0 mg/ml solutions (1% MC/0.4% Cr EL in WFI).
Rats were administered a single dose of test compound in combination by oral gavage. Dose volumes were adjusted based on body weight data collected immediately prior to dosing.
The dose volume was 1 ml/kg and the nominal dosage was 3 mg/kg.
Blood samples were collected at 5 minutes, 20 minutes, 1 hour, 3 hours, 6 hours, 9 hours, and 24 hours post-dosing from orally dosed rats. The samples were collected into plasma separator Microtainer tubes with anticoagulant (lithium heparin). Plasma samples were prepared by centrifugation (5 min at 5000×g), and at least 100 μL were transferred to storage tubes and frozen on dry ice. Samples were maintained at approximately −75 C until prepared for analysis.
Plasma samples were thawed and 75 uL aliquots were transferred to centrifuge tubes to which 10 μL aliquots of internal standard solution (0.5 μg/mL) were added. The samples were not diluted with blank plasma prior to further processing. Soluble proteins were precipitated by the addition of 300 μL of methanol, followed by centrifugation (20 min at 16,000×g). The samples were evaporated to dryness and reconstituted in 100 μL of water containing 0.2% formic acid and 10% methanol. All samples were loaded onto an autosampler maintained at 6° C. and evaluated for concentrations of test compound using LC-MS/MS. lasma concentration data were evaluated using the computer program WinNonlin (Professional Edition, Pharsight Corporation, version 5.01). […]
Pan HDAC inhibitor 3-((dimethylamino)methyl)-N-(2-(4-(hydroxycarbamoyl)phenoxy)ethyl)benzofuran-2-carboxamide was added to the cassette to serve as a standard since the pharmacokinetics of this compound have been determined previously in rats. The UC's determined for rats administered Compound 303 and Compound 316 orally at 3 mg/kg were 1.42, and 5.36 μg·h/mL, respectively. […]

HDAC1, sequence (Q13547 whole entry, species assumed): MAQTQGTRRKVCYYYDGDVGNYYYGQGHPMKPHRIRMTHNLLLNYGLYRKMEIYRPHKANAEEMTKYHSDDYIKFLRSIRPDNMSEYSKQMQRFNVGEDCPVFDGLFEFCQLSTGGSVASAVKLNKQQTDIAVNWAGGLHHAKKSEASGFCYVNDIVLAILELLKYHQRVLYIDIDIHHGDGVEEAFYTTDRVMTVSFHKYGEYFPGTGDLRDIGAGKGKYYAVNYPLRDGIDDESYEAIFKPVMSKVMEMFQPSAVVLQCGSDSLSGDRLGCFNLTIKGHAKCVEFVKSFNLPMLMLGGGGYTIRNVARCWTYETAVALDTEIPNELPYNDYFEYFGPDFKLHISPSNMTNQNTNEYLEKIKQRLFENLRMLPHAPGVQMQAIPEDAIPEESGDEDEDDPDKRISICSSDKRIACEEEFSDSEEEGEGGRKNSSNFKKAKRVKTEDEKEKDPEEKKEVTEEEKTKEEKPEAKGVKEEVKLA

**Q.** Which results are given for O=C(NO)c1ccc2ccn(CCOc3ccccc3)c2c1 [Compound 316, N-hydroxy-1-(2-phenoxyethyl)-1H-indole-6-carboxamide]?
**A.** IC50 [1]: > 10 µM; IC50 [2]: > 10 µM; AUC [3]: 5360 ng·h/mL; Cmax [3]: 828 ng/mL
